Measured values from US20040192759A1, “Use of nefiracetam for treating neurodegeneration” (priority 2004, published 2004).
Entries after “also recorded” stand apart in the source; their conditions may differ.

Tests used:
[1] = test system: patients after a stroke (cerebral infarction or cerebral hemorrhage); settings: Ohtomo et al., global results; cited from earlier work
[2] = test system: hippocampal rat embrio neurons; experiment: neurite outgrowth in primary cultures of hippocampal neurons; assay type: cell-based
stroke patients = settings: Hirata et al.; cited from earlier work
[3] = test system: rats with cerebral embolism; experiment: spatial learning and retention (watermaze) of rats with cerebral embolism; assay type: in vivo, male Wistar rats
Experimental: This assumption is confirmed by the effect of nefiracetam on spatial learning and retention in rats with cerebral embolism, treated for 9 days with nefiracetam or vehicle, starting within 24 hours of embolization.
In male Wistar rats weighing 190-220 g a total of 700 microspheres (48 μm in diameter) were injected into the right common carotid artery of each animal, whereby a quasi-immediate embolism occurs. The embolized animals were randomly divided into 2 groups, each of 13 animals with same neurological deficit, designated as “Control” (embolism plus Vehicle), or “Nefiracetam” (embolism plus nefiracetam 10 mg/kg/day). In addition, a group of 13 “Normal (Sham)” non-embolized animals were used. The administration of nefiracetam or of its vehicle started within the same day of embolization and treatment lasted 9 days. Seven days after embolization, the embolized rats were submitted to a watermaze test, said watermaze being adapted from the Morris water task. The time taken to find the platform (latency) was determined. […] The experiment was carried out in two different sessions. In the first session, at the seventh day embolized rats were submitted to the spatial learning test performed three trials per day for three days (from day 7 to day 9). In the second session, one week after the last day of spatial learning test […], a retention test was performed whereby each rat was given three consecutive trials to learn and remember the location of the platform.

post-stroke patients = experiment: controlled clinical trial against placebo in post-stroke patients, improvement rating by duration from stroke; assay type: in vivo, human
Experimental: The activity of nefiracetam to improve ADL in post-stroke patients has been discovered during a controlled clinical trial against placebo. The compound has been administered orally (450 mg/day, three times daily) to 32 post-stroke patients within six months after the event whilst, concurrently, 27 patients received placebo. The two groups of patients were followed during at least 8 weeks and followed up at the end of week 4 and at the end of week 8 on a symptom scale measuring Activities of Daily Living. […] Among the above 59 patients, 19 received nefiracetam and 10 received placebo within three months after stroke. […] The difference was significant (p=0.035, χ^2 test).
Further, the action of nefiracetam on the patient who had been treated with nefiracetam early after stroke or later was evaluated.

[4] = test system: cortical rat embrio neurons; experiment: neurite outgrowth in primary cultures of cortical neurons; assay type: cell-based; settings: 0.1, 1, 10 and 100 micromoles/l
[5] = Overall (all durations from stroke)
[6] = duration from stroke <12 months
[7] = duration from stroke ≧12 months

In the case of `Cc1cccc(C)c1NC(=O)CN1CCCC1=O` [nefiracetam, N-(2,6-dimethylphenyl)-2-(2-oxo-1-pyrrolidinyl)acetamide], the “activities of daily living, nefiracetam vs placebo” value [1] is listed as “no significant difference between the two groups”, the psychiatric symptoms [1] is listed as “improves the psychiatric symptoms” and the “neurotrophic effect (neurite outgrowth)” value ([2]; 0.1, 1, 10 and 100 micromoles/l) is listed as “significantly increasing neurite outgrowth”. The “neurite outgrowth effect in combination with bFGF” value ([2]; with bFGF) was “potentiated by bFGF”, the “improvement of mental function tests” value (stroke patients) was “not significant” and the “Number of rats which failed to find the platform within 180 Sec., Spatial learning test” value (shortened to “Number … Spatial learning test”) ([3]; Day 7, 10 mg/kg/day, of 13 rats) was 8. The “Latency to reach the platform, Spatial learning test” value (from here on “Latency … Spatial learning test”) ([3]; Day 7 after embolization, 10 mg/kg/day for 9 days, n 13) was 147.6 ± 14.1 s, the “Number … Spatial learning test” value ([3]; Day 8, 10 mg/kg/day, of 13 rats) was 2 and the “Latency … Spatial learning test” value ([3]; Day 8 after embolization, 10 mg/kg/day for 9 days, n 13) was 83.7 ± 17.4 s. For the same molecule, the “Number … Spatial learning test” value ([3]; Day 9, 10 mg/kg/day, of 13 rats) was 2, the “Latency … Spatial learning test” value ([3]; Day 9 after embolization, 10 mg/kg/day for 9 days, n 13) was 93.1 ± 16.2 s and the “Number of rats which failed to find the platform within 180 Sec., Retention test” value ([3]; Day 17, 10 mg/kg/day, of 13 rats) was 2. For the same molecule, the “Latency to reach the platform, Retention test” value ([3]; Day 17 after embolization (after washout), 10 mg/kg/day for 9 days, n 13) was 72.2 ± 17.0 s, the “effect in retention test vs vehicle (in words)” value ([3]; day 17 after embolization, after washout) was “maintained even after washout; also recorded: remakable difference” and the “learning ability in place-learning watermaze task vs vehicle (in words)” value ([3]; days 7 to 9 after embolization) was “clear difference between nefiracetam and vehicle-treated animals”. For the same molecule, the “improvement on symptom scale measuring Activities of Daily Living (in words)” value (post-stroke patients; 450 mg/day orally, within six months after stroke, 32 patients, weeks 4 and 8) was “moderate or remarkable improvement”, the “Emotional Disturbance, Improvement Rate (Percent Patients Remarkably or Moderately Improved)” value (post-stroke patients; [5]) was “Overall 22.6%” and the “Global Improvement Rating, Improvement Rate (Percent Patients Remarkably or Moderately Improved)” value (post-stroke patients; [5]) was “Overall 32.3%”. The “Intellectual Dysfunction, Improvement Rate (Percent Patients Remarkably or Moderately Improved)” value (post-stroke patients; [5]) was “Overall 11.9%”, the “Psychiatric Symptoms, Improvement Rate (Percent Patients Remarkably or Moderately Improved)” value (post-stroke patients; [5]) was “Overall 30.8%” and the “Reduced Spontaneity, Improvement Rate (Percent Patients Remarkably or Moderately Improved)” value (post-stroke patients; [5]) was “Overall 23.4%”. For the same molecule, the “ADL Improvement, Improvement Rate (Percent Patients Remarkably or Moderately Improved)” value (post-stroke patients; duration from stroke <3 months) was 41.7%, the “ADL Improvement, Improvement Rate (patients improved/patients)” value (post-stroke patients; duration from stroke <3 months) was 5/12 and the “Emotional Disturbance, Improvement Rate (Percent Patients Remarkably or Moderately Improved)” value (post-stroke patients; duration from stroke <3 months) was 70.6%. For the same molecule, the “Emotional Disturbance, Improvement Rate (patients improved/patients)” value (post-stroke patients; duration from stroke <3 months) was 12/17, the “Global Improvement Rating, Improvement Rate (Percent Patients Remarkably or Moderately Improved)” value (post-stroke patients; duration from stroke <3 months) was 68.4% and the “Global Improvement Rating, Improvement Rate (patients improved/patients)” value (post-stroke patients; duration from stroke <3 months) was 13/19. For the same molecule, the “Intellectual Dysfunction, Improvement Rate (Percent Patients Remarkably or Moderately Improved)” value (post-stroke patients; duration from stroke <3 months) was 43.8%, the “Intellectual Dysfunction, Improvement Rate (patients improved/patients)” value (post-stroke patients; duration from stroke <3 months) was 7/16 and the “Psychiatric Symptoms, Improvement Rate (Percent Patients Remarkably or Moderately Improved)” value (post-stroke patients; duration from stroke <3 months) was 68.4%. The “Psychiatric Symptoms, Improvement Rate (patients improved/patients)” value (post-stroke patients; duration from stroke <3 months) was 13/19, the “Reduced Spontaneity, Improvement Rate (Percent Patients Remarkably or Moderately Improved)” value (post-stroke patients; duration from stroke <3 months) was 61.1% and the “Reduced Spontaneity, Improvement Rate (patients improved/patients)” value (post-stroke patients; duration from stroke <3 months) was 11/18. For the same molecule, the “ADL Improvement, Improvement Rate (Percent Patients Remarkably or Moderately Improved)” value (post-stroke patients; duration from stroke <6 months) was 21.7%, the “ADL Improvement, Improvement Rate (patients improved/patients)” value (post-stroke patients; duration from stroke <6 months) was 5/23 and the “Emotional Disturbance, Improvement Rate (Percent Patients Remarkably or Moderately Improved)” value (post-stroke patients; duration from stroke <6 months) was 48.3%. For the same molecule, the “Emotional Disturbance, Improvement Rate (patients improved/patients)” value (post-stroke patients; duration from stroke <6 months) was 14/29, the “Global Improvement Rating, Improvement Rate (Percent Patients Remarkably or Moderately Improved)” value (post-stroke patients; duration from stroke <6 months) was 50.0% and the “Global Improvement Rating, Improvement Rate (patients improved/patients)” value (post-stroke patients; duration from stroke <6 months) was 16/32. The “Intellectual Dysfunction, Improvement Rate (Percent Patients Remarkably or Moderately Improved)” value (post-stroke patients; duration from stroke <6 months) was 29.6%, the “Intellectual Dysfunction, Improvement Rate (patients improved/patients)” value (post-stroke patients; duration from stroke <6 months) was 8/27 and the “Psychiatric Symptoms, Improvement Rate (Percent Patients Remarkably or Moderately Improved)” value (post-stroke patients; duration from stroke <6 months) was 50.0%. For the same molecule, the “Psychiatric Symptoms, Improvement Rate (patients improved/patients)” value (post-stroke patients; duration from stroke <6 months) was 16/32, the “Reduced Spontaneity, Improvement Rate (Percent Patients Remarkably or Moderately Improved)” value (post-stroke patients; duration from stroke <6 months) was 46.7% and the “Reduced Spontaneity, Improvement Rate (patients improved/patients)” value (post-stroke patients; duration from stroke <6 months) was 14/30. The “ADL Improvement, Improvement Rate (Percent Patients Remarkably or Moderately Improved)” value (post-stroke patients; [6]) was 14.3%, the “ADL Improvement, Improvement Rate (patients improved/patients)” value (post-stroke patients; [6]) was 5/35 and the “Emotional Disturbance, Improvement Rate (Percent Patients Remarkably or Moderately Improved)” value (post-stroke patients; [6]) was 48.8%. For the same molecule, the “Emotional Disturbance, Improvement Rate (patients improved/patients)” value (post-stroke patients; [6]) was 21/43, the “Global Improvement Rating, Improvement Rate (Percent Patients Remarkably or Moderately Improved)” value (post-stroke patients; [6]) was 50.0% and the “Global Improvement Rating, Improvement Rate (patients improved/patients)” value (post-stroke patients; [6]) was 24/48. For the same molecule, the “Intellectual Dysfunction, Improvement Rate (Percent Patients Remarkably or Moderately Improved)” value (post-stroke patients; [6]) was 23.1%, the “Intellectual Dysfunction, Improvement Rate (patients improved/patients)” value (post-stroke patients; [6]) was 9/39 and the “Psychiatric Symptoms, Improvement Rate (Percent Patients Remarkably or Moderately Improved)” value (post-stroke patients; [6]) was 50.0%. The “Psychiatric Symptoms, Improvement Rate (patients improved/patients)” value (post-stroke patients; [6]) was 24/48, the “Reduced Spontaneity, Improvement Rate (Percent Patients Remarkably or Moderately Improved)” value (post-stroke patients; [6]) was 46.7% and the “Reduced Spontaneity, Improvement Rate (patients improved/patients)” value (post-stroke patients; [6]) was 21/45. The “ADL Improvement, Improvement Rate (Percent Patients Remarkably or Moderately Improved)” value (post-stroke patients; duration from stroke ≧3 months) was 1.2%, the “ADL Improvement, Improvement Rate (patients improved/patients)” value (post-stroke patients; duration from stroke ≧3 months) was 1/81 and the “ADL Improvement, Improvement Rate (Percent Patients Remarkably or Moderately Improved)” value (post-stroke patients; duration from stroke ≧6 months) was 1.4%. For the same molecule, the “ADL Improvement, Improvement Rate (patients improved/patients)” value (post-stroke patients; duration from stroke ≧6 months) was 1/70, the “Emotional Disturbance, Improvement Rate (Percent Patients Remarkably or Moderately Improved)” value (post-stroke patients; duration from stroke ≧6 months) was 14.7% and the “Emotional Disturbance, Improvement Rate (patients improved/patients)” value (post-stroke patients; duration from stroke ≧6 months) was 14/95. For the same molecule, the “Global Improvement Rating, Improvement Rate (Percent Patients Remarkably or Moderately Improved)” value (post-stroke patients; duration from stroke ≧6 months) was 26.5%, the “Global Improvement Rating, Improvement Rate (patients improved/patients)” value (post-stroke patients; duration from stroke ≧6 months) was 26/98 and the “Intellectual Dysfunction, Improvement Rate (Percent Patients Remarkably or Moderately Improved)” value (post-stroke patients; duration from stroke ≧6 months) was 6.1%. The “Intellectual Dysfunction, Improvement Rate (patients improved/patients)” value (post-stroke patients; duration from stroke ≧6 months) was 5/82, the “Psychiatric Symptoms, Improvement Rate (Percent Patients Remarkably or Moderately Improved)” value (post-stroke patients; duration from stroke ≧6 months) was 24.5% and the “Psychiatric Symptoms, Improvement Rate (patients improved/patients)” value (post-stroke patients; duration from stroke ≧6 months) was 24/98. The “Reduced Spontaneity, Improvement Rate (Percent Patients Remarkably or Moderately Improved)” value (post-stroke patients; duration from stroke ≧6 months) was 16.0%, the “Reduced Spontaneity, Improvement Rate (patients improved/patients)” value (post-stroke patients; duration from stroke ≧6 months) was 15/94 and the “ADL Improvement, Improvement Rate (Percent Patients Remarkably or Moderately Improved)” value (post-stroke patients; [7]) was 1.7%. The “ADL Improvement, Improvement Rate (patients improved/patients)” value (post-stroke patients; [7]) was 1/58, the “Emotional Disturbance, Improvement Rate (Percent Patients Remarkably or Moderately Improved)” value (post-stroke patients; [7]) was 8.6% and the “Emotional Disturbance, Improvement Rate (patients improved/patients)” value (post-stroke patients; [7]) was 7/81. For the same molecule, the “Global Improvement Rating, Improvement Rate (Percent Patients Remarkably or Moderately Improved)” value (post-stroke patients; [7]) was 22.0%, the “Global Improvement Rating, Improvement Rate (patients improved/patients)” value (post-stroke patients; [7]) was 18/82 and the “Intellectual Dysfunction, Improvement Rate (Percent Patients Remarkably or Moderately Improved)” value (post-stroke patients; [7]) was 5.7%. The “Intellectual Dysfunction, Improvement Rate (patients improved/patients)” value (post-stroke patients; [7]) was 4/70, the “Psychiatric Symptoms, Improvement Rate (Percent Patients Remarkably or Moderately Improved)” value (post-stroke patients; [7]) was 19.5% and the “Psychiatric Symptoms, Improvement Rate (patients improved/patients)” value (post-stroke patients; [7]) was 16/82. The “Reduced Spontaneity, Improvement Rate (Percent Patients Remarkably or Moderately Improved)” value (post-stroke patients; [7]) was 10.1%, the “Reduced Spontaneity, Improvement Rate (patients improved/patients)” value (post-stroke patients; [7]) was 8/79 and the incontinence of urines (post-stroke patients; early treatment after stroke) was “tends to improve”. The neurological signs (post-stroke patients; early treatment after stroke) was “tends to improve” and the “neurotrophic effect (neurite outgrowth)” value [4] was “significantly increasing neurite outgrowth”.
